Results: patent publication US7304084B2, “6-[(4,5-Dihydro-1H-imidazol-2-yl)amino]-7-methyl-1H-benzimidazole-4-carbonitrile and its preferred salt” (The Board of Regents of the University of Nebraska, priority 2003, dated 2007)
In brackets after ≈: the same amount, converted by molar mass. Structures can show the parent of a compound that is named as a salt. Where two headings read alike, the source gives them in different places.

Assays:
[1] = Solubility in water at ambient temperature (saturated solution, supernatant by quantitative HPLC); type: physicochemical
Procedure: One such technique is to prepare a saturated solution of the salt form by shaking a suspension of the salt form in water, until a saturated solution is obtained. The saturated solution is then centrifuged and the concentration of the supernatant is determined by quantitative HPLC analysis. A suitable HPLC method is described in Example 1.

[2] = Ames Test dose/response studies; type: cell-based; conditions: impurity (2) present in compound (1) and its various salt forms
Source text: [drawing 10] is produced in pharmaceutically unacceptable levels using these previous methods. Based on dose/response studies using an Ames Test, the mutagenic impurity (2) is shown to elicit a positive response when present at level about 1 ppm (parts per million) in 6-[(4,5-Dihydro-1H-imidazol-2-yl)amino-]-7-methyl-1H-benzimidazole-4-carbonitrile (1) and its various salt forms. Low levels of this phenazine impurity can be detected by those methods well known in the art such as HPLC with fluorescence detection. Suitable examples of such assays are described in Examples 1, 2, and 3 herein. A suitable preparation of labeled ^15N4-2,3,7-Triamino-4,6-dimethyl-1,9-phenazinedicarbonitrile is described in Example 4 herein. A suitable preparation of non-labeled 2,3,7-Triamino-4,6-dimethyl-1,9-phenazinedicarbonitrile is described in Example 19 herein. III. Methods of Making Intermediate of Formula (II)

**Q.** Which solubility in water [1] does the source give for `CC(=O)O.Cc1c(NC2=NCCN2)cc(C#N)c2nc[nH]c12` [Acetate Salt Form, 6-[(4,5-Dihydro-1H-imidazol-2-yl)amino-]-7-methyl-1H-benzimidazole-4-carbonitrile, Acetic Acid Salt (1:1)] here?
**A.** Its solubility in water is “about 135 mg/mL”.

**Q.** For `Cc1c(N=C2NCCN2)cc(C#N)c2[nH]cnc12` [Free Base Form, 6-[(4,5-Dihydro-1H-imidazol-2-yl)amino-]-7-methyl-1H-benzimidazole-4-carbonitrile], which solubility ([1]; water, thermodynamic from solid) is on record?
**A.** The solubility was about 400 µg/mL (≈ 1660 µM).

**Q.** For `Cc1c(N)cc(C#N)c2nc3c(C#N)c(N)c(N)c(C)c3nc12` [compound 2, 2,3,7-triamino-4,6-dimethyl-1,9-phenazinedicarbonitrile], which “level of the impurity at which a positive response is elicited in the Ames Test” value [2] is on record?
**A.** Its value is “about 1 ppm”.

**Q.** With `Cc1c(NC2=NCCN2)cc(C#N)c2nc[nH]c12` [Sulfate Salt Form, 6-[(4,5-Dihydro-1H-imidazol-2-yl)amino-]-7-methyl-1H-benzimidazole-4-carbonitrile, reference compound] as the compound, how does the solubility in water ([1]; water, ambient temperature) read?
**A.** The solubility in water was “about 4 mg/mL”.
